# Measured values as given in patent US20050186290A1, “Use of aquaglyceroporin modulators as slimming agent” (L'OREAL, priority 2003, published 2005).
# Assays:
# Assay type in all cases: cell-based, mice
# [1] = test system: differentiated 3T3-L1 cells; test: Fluorescence assay of glycerol released, Protocol 1 (without epinephrine); conditions: for Release of glycerol: summary
# Protocol: (§1) The effects on the release of glycerol were tested in the presence of all the test products and using a fluorescence assay method. Glycerol was then assayed with regard to certain selected products using a calorimetric method and in the presence or the absence of HgCl2.
# (§2) The cells used were mice preadipocytes of the 3T3-L1 line (40 000 cells/well).
# (§3) The cells were cultured until confluency in a growth medium, with a change in medium every 2-3 days (24-well plates). • Growth medium: • DMEM (Life Technologies 21969035) L-glutamine, 2 mM (Life Technologies 25030024) • Penicillin 50 IU/ml streptomycin 50 μg/ml (Life Technologies 15070063) • Amphotericin B, 0.25 μg/ml (Sigma A2942) • Foetal calf serum, 10% v/v (Life Technologies 10106151).
# (§4) At high confluency, the cells were transferred into a differentiation medium for 2×48 hours. • Differentiation medium: • DMEM (Life Technologies 21969035) • L-glutamine, 2 mM (Life Technologies 25030024) • Penicillin 50 IU/ml streptomycin 50 μg/ml (Life Technologies 15070063) • Foetal calf serum, 10% v/v (Life Technologies 10106151), • Isobutylmethylxanthine, 0.5 mM (IBMX, Sigma 17018) • Insulin, 5 μg/ml (Sigma 11882) • Dexamethasone, 1 μM (Sigma D1756)
# After differentiation, the cells were transferred into DMEM medium+insulin (5 μg/ml final) for 72 hours and then into growth medium (DMEM/10% serum).
# The differentiated cells were placed in test medium (MEM 100% (v/v), bicarbonate 1.87 mg/ml, glutamine 2 mM, delipidated bovine serum albumin 0.5% (w/v), penicillin/streptomycin 25 IU/ml/25 μg/ml) and were then treated with the test products or the references. After incubating at 37° C. for 1 h and 5% CO2, the culture supernatants were removed in order to assay the glycerol released.
# The glycerol released into the culture medium was with a determined content of directly by measuring the fluorescence of the NADH produced in the following reaction sequence (according to Wieland). [drawing 1] Autofluorescence and quenching (absorption of the fluorescence) controls were carried out in order to determine possible interference of the products in this assay.
# [2] = test system: differentiated 3T3-L1 cells; test: Colorimetric assay of glycerol released, Protocol 1; conditions: Protocol 1, 40 μM
# Protocol: as §1, §2, §3, §4
# After differentiation, the cells were transferred into DMEM medium+insulin (5 μg/ml final) for 72 hours and then into growth medium (DMEM/10% serum). […]
# [3] = test system: Aquaporin adipose (AQPap) messenger; test: Relative expression of AQPap messenger by RT-Q-PCR in differentiated 3T3-L1 cells; conditions: for RE*AQP7 / AQP7/Actin % Control: 6 h; for RE*AQP7: n=2; for AQP7/Actin % Control: differentiated control = 100; for mRNA stimulation: summary
# Protocol: The test was carried out on differentiated 3T3-L1 cells obtained as described in Example 1.
# The differentiated cells were placed beforehand in test medium for 24 hours and were then treated with the test products or the references. After incubating for 6 h at 37° C. and 5% CO2, the culture supernatants were removed, the cells were rinsed with a PBS solution and the cell layers were placed in Tri-Reagent (Sigma T9424) and then immediately frozen at −80° C.
# The expression of the markers selected was evaluated by RT-Q-PCR with regard to the messenger RNAs extracted from the cells corresponding to each treatment.
# The marker β-actin (M12481) was used as reference marker.
# The operational stages are as follows: • Extraction of the total RNAs using Tri-Reagent according to the protocol recommended by the supplier. Then further extraction with chloroform and precipitation with isopropanol. • Removal of the traces of potentially contaminating DNA by treatment with the DNA-free system (Ambion). After monitoring the quality of the RNAs obtained, the three samples corresponding to each treatment were pooled. • Carrying out the reverse transcription reaction on the mRNA in the presence of the oligo(dT) primer and of the Superscript II (Gibco) enzyme. • Quantification by fluorescence of the synthesized cDNA and adjustment of the concentrations to 50 ng/μl. Further quantification of each cDNA, after final dilution, is carried out before the PCR reaction.
# The PCR (polymerase chain reactions) reactions were carried out by quantitative PCR with the “Light Cycler” system (Roche Molecular Systems Inc.) and according to the procedures recommended by the supplier.
# The incorporation of fluorescence into the amplified DNA is carried out continuously during the PCR cycles. This system makes it possible to obtain curves of measurement of the fluorescence as a function of the PCR cycles and to thus evaluate a value of relative expression for each marker.
# The number of cycles is determined from the “exit” points of the fluorescence curves. For the same marker analysed, the later the sample exits (high cycle number), the lower the initial number of mRNA copies.
# The RE (relative expression) value is expressed in arbitrary units according to the following formula: (1/2^number of cycles)×10^6
# Results: Effects of the various treatments on the relative expression of the Aquaporin adipose (AQPap) messenger. Results with respect to the amount of actin messenger (reference gene).
# RE=Relative Expression, expressed in arbitrary units (AU), n=2.
# [4] = test system: differentiated 3T3-L1 cells; test: Fluorescence assay of glycerol released, HgCl2 protocol (Protocol 3); conditions: 10 mM
# Protocol: The majority of mammalian aquaporins are inhibited by mercury and its salts, whereas chemical inhibitors of diffusion are unknown (P. Agre et al., J. of Physiology, 2002, 542.1). The cells used were mice preadipocytes of the 3T3-L1 line (40 000 cells/well). The cells were cultured until confluency in a growth medium, with a change in medium every 2-3 days (24-well plates). • Growth medium: • DMEM (Life Technologies 21969035) L-glutamine, 2 mM (Life Technologies 25030024) • Penicillin 50 IU/ml streptomycin 50 μg/ml (Life Technologies 15070063) • Amphotericin B, 0.25 μg/ml (Sigma A2942) • Foetal calf serum, 10% v/v (Life Technologies 10106151). […] After differentiation, the cells were transferred into DMEM medium+insulin (5 μg/ml final) for 72 hours and then into growth medium (DMEM/10% serum). […] The differentiated cells were placed in test medium for 24 h. The cells were subsequently placed in PBS buffer comprising or not comprising HgCl2 (30 μM final) for 5 minutes at 37° C. After treatment with HgCl2, the cells were washed twice in PBS and then placed in test medium comprising or not comprising the test products. The culture supernatants were subsequently removed in order to assay the glycerol released.
# [5] = Protocol 1 (Caophenol table), 40 μM
compound,measurement,setting,value
CNC[C@H](O)c1ccc(O)c(O)c1 [Epinephrine],% Control,[1]; [5],327%
same,"% theory, taking into account the quenching control",[1]; [5],327%
same,Glycerol,[1]; [5],101.85 µM
same,% Control,"[1]; Protocol 1, 40 μM, 1 h",352%
same,Glycerol,"[1]; Protocol 1, 40 μM, 1 h",117.57 µM
same,Glycerol,"[1]; differentiated preadipocytes, epinephrine 40 μM",149.5 µM
same,Δ%,"[1]; differentiated preadipocytes, epinephrine 40 μM, unstimulated differentiated = 100",383%
same,% Control,[2],795%
same,Glycerol,[2],449.74 µM
Aescin,RE*AQP7,[3]; 0.000128 mg/ml,0.034 AU
same,AQP7/Actin % Control,[3]; 0.000128 mg/ml,134%
same,RE*AQP7,[3]; 0.00064 mg/ml,0.039 AU
same,AQP7/Actin % Control,[3]; 0.00064 mg/ml,168%
same,RE*AQP7,[3]; 0.0032 mg/ml,0.043 AU
same,AQP7/Actin % Control,[3]; 0.0032 mg/ml,164%
same,mRNA stimulation,[3]; 0.128-3.2 μg/ml,Yes
CCCCCCCCSCC#CCSCC(=O)O [{[4-(Octylthio)but-2-ynyl]thio}acetic acid],Release of glycerol,[1]; 0.32-8.0 μg/ml,No
same,RE*AQP7,[3]; 0.00016 mg/ml,0.023 AU
same,AQP7/Actin % Control,[3]; 0.00016 mg/ml,128%
same,RE*AQP7,[3]; 0.0008 mg/ml,0.022 AU
same,AQP7/Actin % Control,[3]; 0.0008 mg/ml,153%
same,RE*AQP7,[3]; 0.004 mg/ml,0.020 AU
same,AQP7/Actin % Control,[3]; 0.004 mg/ml,167%
same,mRNA stimulation,[3]; 0.32-8.0 μg/ml,Yes
OCCS [β-Mercaptol],"% theory, taking into account the quenching control",[4],155%
same,Glycerol,[4],135.74 µM
same,% Control,[4]; HgCl2 control = 100,155%
CCCCCCCCCCC#CCSCC(=O)O [(Tridec-2-ynylthio)acetic acid],Release of glycerol,[1]; 0.16-4.0 μg/ml,No
same,RE*AQP7,[3]; 0.00032 mg/ml,0.912 AU
same,AQP7/Actin % Control,[3]; 0.00032 mg/ml,130%
same,RE*AQP7,[3]; 0.0016 mg/ml,0.872 AU
same,AQP7/Actin % Control,[3]; 0.0016 mg/ml,105%
same,RE*AQP7,[3]; 0.008 mg/ml,0.032 AU
same,AQP7/Actin % Control,[3]; 0.008 mg/ml,174%
same,mRNA stimulation,[3]; 0.16-4.0 μg/ml,Yes
